Data taken from patent US20120251525A1, “METHOD OF UTILIZING AZELAIC ACID ESTERS TO MODULATE COMM[…] BY […]” (priority 2009, published 2012).

Assays:
EpiDerm tissues = assay: MatTek EpiDerm in vitro human skin model, croton oil irritant, multiplex immunoassay of markers; assay type: cell-based; details: for tissue levels of IL-17 / tissue levels of MIP-1-alpha: relative to control (croton oil only)
human choroidal melanoma = details: Breathnach et al. 1989; cited from earlier work
[1] = clinical practice; cited from earlier work
[2] = system: human squamous cell carcinoma; details: Paetzold et al. 1989; cited from earlier work
[3] = system: human cutaneous malignant melanoma; details: Zaffaroni et al. 1990; cited from earlier work
[4] = system: various fibroblastic lines; details: Geier et al. 1986; cited from earlier work
[5] = growth medium, croton oil, 24 hours, relative to control
[6] = tissue, croton oil, 24 hours, relative to control

Structure (SMILES) | IL-8 modulation (EpiDerm tissues; matrix not stated) | IL-17 modulation (EpiDerm tissues; matrix not stated) | IL-23 modulation (EpiDerm tissues; matrix not stated) | tissue levels of IL-17 (EpiDerm tissues; tissue) | tissue levels of MIP-1-alpha (EpiDerm tissues; tissue) | IL-1-beta medium marker level (EpiDerm tissues; [5]) | IL-4 medium marker level (EpiDerm tissues; [5]) | IL-10 medium marker level (EpiDerm tissues; [5]) | TNF-alpha medium marker level (EpiDerm tissues; [5]) | IL-1-beta tissue level (EpiDerm tissues; [6]) | IL-4 tissue level (EpiDerm tissues; [6]) | IL-10 tissue level (EpiDerm tissues; [6]) | TNF-alpha tissue level (EpiDerm tissues; [6]) | antiproliferative and cytotoxic action (human choroidal melanoma) | major dose limiting toxicity [1] | antiproliferative and cytotoxic action [2] | antiproliferative and cytotoxic action [3] | antiproliferative and cytotoxic action [4]
CCOC(=O)CCCCCCCC(=O)OCC [DEA, diethyl azelate] | suppressing | suppressing | suppressing | exceedingly high relative to control | elevated relative to control |  |  |  |  |  |  |  |  |  |  |  |  | 
COC(=O)CCCCCCCC(=O)OC [DMA, dimethylazelate] |  |  |  |  |  | increased | increases | increases | increased | decreased relative to control | decreased relative to control | decreased relative to control | decreased relative to control |  |  |  |  | 
O=C(O)CCCCCCCC(=O)O [azelaic acid] |  |  |  | significantly lower than control | elevated relative to control |  |  |  |  |  |  |  |  | antiproliferative and cytotoxic action | skin irritation | antiproliferative and cytotoxic action | antiproliferative and cytotoxic action | antiproliferative and cytotoxic action
